In data set [1] the target is Klebsiella E70 β-lactamase. The data set can be described thus: β-lactamase inhibition by automated chromogenic substrate assay of Reading and Farmer. It is filed as biochemical. As to the method:
β-lactamase inhibition by (III): A solution of III was tested as a β-lactamase inhibitor by the automated chromogenic substrate assay of C. Reading and T. Farmeragainst Klebsiella E70 β-lactamase. Taking the yield of (III) from the hydrogenation reaction as 35% gave an I^50 with pre-incubation of 0.01 μg/ml and without pre-incubation of enzyme and inhibitor of 1μg/ml.

Data set [2] can be described thus: Spontaneous decomposition in solution (h.p.l.c. / nmr). It is filed as physicochemical. To be noted: for % of the original remaining: 0.2 M aqueous sodium phosphate pH 6.85, room temperature, h.p.l.c. As for the experimental part:
This instability prevented full characterisation of the acid (I), so it was converted with diazomethane to its methyl ester (IV) in an overall yield of 16% from the benzyl ester (II) (A.G. Brown et al, J. Chem. Soc. Perkin Trans. I, 1984, 635). The spectral data obtained for the methyl ester (IV) were indistinguishable from those obtained by A. G. Brown et al 1984.
Benzyl 3-oxoethylidene-7-oxo-4-oxa-1-azabicyclo[3.2.0]heptane-2-carboxylate (II) (50 mg, 0. 17m mol) was dissolved in tetrahydrofuran (5 ml) and 0.2 M sodium phosphate adjusted to pH 6.85 (5 ml), and hydrogenated at ambient temperature and pressure for ten minutes with 10% palladium on carbon (40 mg). The reaction mixture was rapidly filtered and evaporated to dryness while the temperature was maintained below 10° C. The residue was immediately redissolved in D2O to give a solution of the title compound (III). δH(250 MHz, D20) inter alia E isomer 3.25 (1H, d, J 17.4 Hz, 6β-H), 3.65 (1H, dd, J 17.4 and 2.9 Hz, 6 α-H), 5.73 (1H, d, J 1.2 Hz, 2-H), 5.79 (1H, dd, J 8.3 and 1 Hz, 8-H), 5.94 (1H, d, 2.7 Hz, 5-H), 9.55 (1H, d, J 8.3 Hz, 9-H), Z isomer 3.29 (1H, d, J 17.3 Hz, 6β-H), 3.65 (1H, dd, J 17.4 and 2.9 Hz, 6 α-H), 5.27 (1H, s, 2-H), 5.50 (1H, d, J 8.2 Hz, 8-H), 6.00 (1H, d, J2.7 Hz, 5-H), and 9.70 (1H, d, J 8.2 Hz, 9-H). The E and Z isomers were assigned on the relative positions of their 8-proton resonance (Gerald Brooks+Eric Huit J.Chem.Soc. Perkin Trans. I (1983) 2513) and were in the ratio E-Z (2:1). Material prepared by the above hydrogenation with water substituting for the phosphate solution and adjustment of the pH of the reaction mixture to 6.5 with 0.1 M NaOH gave (III) (Yield 35% from NaOH consumed), λmax. (H2O) 262 nm; vmax.(KBr) 3 400, 1 792 (br), and 1 640 cm^−1 (br), […]; thin layer chromatography on silica 60 eluted with butan- 1-ol-ethanol-water (4:1:1) and visualised with Schiffs reagent gave a blue zone (Rf:0.52). Addition of a known weight of fumaric acid to the crude product solution followed by evaporation and nmr analysis indicated a yield of 20% by comparison of the intensity of the fumarate protons with the intensity of the aldehydic proton of (M). When this solution was allowed to stand at room temperature for 3.5 hours, (III) was seen to have decomposed to a yield of 3.2%.

For data set [3], the system named is broken cell suspension (BCS) of S.clavuligerus SC2. The data set is described as follows: Enzymic reduction of (III) to clavulanic acid by broken cell suspension, KaG bioassay. Type of data set: biochemical, Streptomyces clavuligerus. From the text: Compound (I) was reduced to clavulanic acid by NADPH in the presence of a broken cell suspension of S. clavuligerus SC2 (Table 1). (SC2 is a reisolate of ATCC 27064). The clavulanic acid produced was detected by KaG bioassay (AG. Brown et al J. Antibiot., 1976, 29, 668) and chromatographic tapes loaded with the reaction mixture, were compared with standards to confirm the presence of clavulanic acid. The reduction was complete before a sample could be removed from the reaction vessel, but appeared to give clavulanic acid in only 14% yield. However, should the enzyme be capable of reducing only the Z isomer of (I) (the geometry of clavulanic acid), the yield is 42%.
Enzymic reduction of (III) to clavulanic acid:- solution of (III) (0.23 mg, 1 μmol, estimated by titration of acid (I)) in water ([…] 1μmol) was added to washed 48 hour S.clavuligerus SC2 cells which had been sonicated (EP 0213 914 example 20) (0.5 ml). The suspension was treated with 10 mM NADPH (0.1 ml, 1 umol), made up to one milliliter with 50 mM MOPS buffer at pH 7.0 and incubated in stoppered tubes at 26° C. Samples (0.2 ml) were removed, treated with methanol (0.2 ml) for 5 minutes, and centrifuged. The clear supernatants were made up to 1.6 ml with MOPS buffer and assayed on discs by the KaG method. Undiluted reaction mixture was applied to Whatman No. 1 chromatography tapes which were developed in either butan-1-ol-acetic acid-water (12:3:5) or butan-1-01-ethanol-water (7:1:2), dried, and visualised by application to a KaG bioassay plate. Standard clavulanic acid solutions were developed and visualised similarly.

Data set [4] shares this test system. Described as above. Type of data set: biochemical, Streptomyces clavuligerus. This is another data set of the same source.
The subject of data set [5] is β-lactamase. The data set is described as follows: β-lactamase inhibitory activity (method not specified). It is filed as biochemical.
The mark [6] stands for this setting: Boiled BCS + (III) + NADPH 1 mM.

“Also recorded” adds a separate entry of the source. Like-named read-outs stand apart in the source and are kept apart here.

`O=CC=C1OC2CC(=O)N2C1C(=O)[O-].[Na+]` (stereo not shown) [(III), Sodium 3-Oxoethylidene-7-oxo-4-oxa-1-azabicyclo (3.2.0)heptane-2-carboxylate] displayed an I50 with pre-incubation in data set [1] (with pre-incubation of enzyme and inhibitor, yield of (III) from hydrogenation taken as 35%) of 0.01 µg/mL. For the same compound, the I50 without pre-incubation in data set [1] (without pre-incubation of enzyme and inhibitor, yield of (III) taken as 35%) came to 1 µg/mL. Moreover, the “% of the original remaining” value in data set [2] (after 35 minutes) amounted to 85%; in data set [2] (after 53 minutes), 63%. For the same compound, in data set [2] (room temperature for 3.5 hours, initial yield 20%), the “yield remaining after decomposition on standing (nmr vs fumaric acid)” value was determined as 3.2%. Also, the “time in which about half had decomposed” value in data set [2] (solution of the salt, room temperature, repeated h.p.l.c. analysis) is listed as “one”. Further, the “Clavulanic Acid at time 0 mins (KaG bioassy)” value in data set [3] (BCS + (III) + NADPH 1 mM) is 28.8 µg/mL; in data set [3] (setting [6]) it was 6.6 µg/mL; in data set [4] ((III) + NADPH 1 mM, no BCS), 8.8 µg/mL; in data set [4] (BCS + (III) + NADH 1 mM), 6.2 µg/mL; in data set [4] (BCS + (III)) it was 8.0 µg/mL. Further, the “Clavulanic Acid at time 60 mins” value is 27.2 µg/mL in data set [3] (BCS + (III) + NADPH 1 mM); 6.6 µg/mL in data set [3] (setting [6]); 7.2 µg/mL in data set [4] ((III) + NADPH 1 mM, no BCS); 6.6 µg/mL in data set [4] (BCS + (III) + NADH 1 mM); 7.0 µg/mL in data set [4] (BCS + (III)).

Take `O=CC=C1CN2C(=O)CC2O1` (stereo not shown) [(V), 3-oxoethylidene-7-oxo-4-oxa-1-azabicyclo [3.2.0] heptane]: the “chemical and stereochemical stability” value in data set [2] (organic solution) was “chemically and stereochemically stable in organic solution”.

For the compound `O=CC=C1OC2CC(=O)N2C1C(=O)O` (stereo not shown) [Compound (I), 3-oxoethylidene-7-oxo-4-oxa-1-azabicyclo-[3.2.0] heptane-2-carboxylic acid], the “rate of decomposition compared with I 111 broth supernatant” value in data set [2] ((I) chemically synthesised from 2R, 5R clavulanic acid) is listed as “same rate of decomposition”. The half-life in data set [2] (aqueous solution, read-out: half life in aqueous solution (converted)) is roughly 30 min; in data set [2] (at 21° C., read-out: half-life) it was roughly 30 min. In data set [5] (chemically synthesised), the “β-lactamase inhibitory activity (in words)” value is listed as “shown to possess β-lactamase inhibitory activity; also recorded: Strong β-lactamase activity”. The “activity as a β-lactamase inhibitor relative to clavulanic acid” value in data set [5] (more active than clavulanic acid) is recorded as “approximately 100 times”.

By half-life is commonly meant the time needed for the level to fall by half in the phase considered.

The record behind these values is patent publication US6692950B1, “Clavulanic acid dehydrogenase, preparation and use for the production of clavulanic acid” (SmithKline Beecham plc, priority 1993, dated 2004).
